According to patent publication US9580437B2, “Triazolopyrimidine compounds and uses thereof” (Novartis AG, priority 2014, dated 2017):
pIC50: −log10 of the molar value.

Legend:
EED (1-441)-His protein = EED (1-441)-His protein (Homo sapiens (Human), UniProt O75530); experiment: EED-H3K27Me3 peptide competition binding assay by AlphaScreen; conditions: read-out: (a) IC50 EED Alphascreen binding Qualified
Description: EED-H3K27Me3 peptide competition binding assay by AlphaScreen (α-screen)

[1] = target: wild type PRC2 (wtPRC2) complex (Homo sapiens (Human), UniProt O75530); experiment: EED LC-MS assay; assay type: biochemical; conditions: read-out: (b) IC50 EED LC-MS Qualified
Chain of wild type PRC2 (wtPRC2) complex (O75530 whole entry): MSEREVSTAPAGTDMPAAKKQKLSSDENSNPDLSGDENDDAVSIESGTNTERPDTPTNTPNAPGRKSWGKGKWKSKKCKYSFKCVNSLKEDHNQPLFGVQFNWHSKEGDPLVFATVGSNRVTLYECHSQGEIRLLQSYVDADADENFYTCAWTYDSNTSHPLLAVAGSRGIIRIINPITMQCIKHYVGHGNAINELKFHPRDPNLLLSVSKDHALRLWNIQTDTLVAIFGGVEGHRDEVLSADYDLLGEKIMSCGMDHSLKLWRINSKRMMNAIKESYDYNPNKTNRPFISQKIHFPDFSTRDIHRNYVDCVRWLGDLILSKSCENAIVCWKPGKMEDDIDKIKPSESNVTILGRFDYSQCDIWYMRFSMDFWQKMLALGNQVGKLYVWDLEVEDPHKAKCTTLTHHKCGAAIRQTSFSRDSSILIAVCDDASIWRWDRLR
Chain of wild type PRC2 (wtPRC2) complex (Q15910 whole entry partner): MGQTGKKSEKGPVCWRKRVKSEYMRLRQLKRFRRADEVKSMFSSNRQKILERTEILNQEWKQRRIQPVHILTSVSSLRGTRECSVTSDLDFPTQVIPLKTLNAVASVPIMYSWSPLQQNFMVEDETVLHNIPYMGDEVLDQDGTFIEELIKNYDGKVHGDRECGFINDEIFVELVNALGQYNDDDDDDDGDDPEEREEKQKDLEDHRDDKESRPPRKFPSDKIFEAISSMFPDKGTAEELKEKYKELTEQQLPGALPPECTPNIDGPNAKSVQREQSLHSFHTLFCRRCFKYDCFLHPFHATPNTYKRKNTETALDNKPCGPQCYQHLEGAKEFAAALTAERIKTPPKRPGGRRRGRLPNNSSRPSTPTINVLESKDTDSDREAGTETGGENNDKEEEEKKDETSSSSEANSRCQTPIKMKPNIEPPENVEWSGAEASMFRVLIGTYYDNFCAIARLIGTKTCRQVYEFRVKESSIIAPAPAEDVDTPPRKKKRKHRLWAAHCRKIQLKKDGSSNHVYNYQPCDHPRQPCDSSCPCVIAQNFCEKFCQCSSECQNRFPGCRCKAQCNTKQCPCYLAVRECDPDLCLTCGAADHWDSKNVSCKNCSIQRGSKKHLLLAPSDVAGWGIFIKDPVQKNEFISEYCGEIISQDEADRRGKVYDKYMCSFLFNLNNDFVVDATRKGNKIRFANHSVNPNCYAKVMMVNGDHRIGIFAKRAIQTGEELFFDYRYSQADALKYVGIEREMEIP
Chain of wild type PRC2 (wtPRC2) complex (Q15022 whole entry partner): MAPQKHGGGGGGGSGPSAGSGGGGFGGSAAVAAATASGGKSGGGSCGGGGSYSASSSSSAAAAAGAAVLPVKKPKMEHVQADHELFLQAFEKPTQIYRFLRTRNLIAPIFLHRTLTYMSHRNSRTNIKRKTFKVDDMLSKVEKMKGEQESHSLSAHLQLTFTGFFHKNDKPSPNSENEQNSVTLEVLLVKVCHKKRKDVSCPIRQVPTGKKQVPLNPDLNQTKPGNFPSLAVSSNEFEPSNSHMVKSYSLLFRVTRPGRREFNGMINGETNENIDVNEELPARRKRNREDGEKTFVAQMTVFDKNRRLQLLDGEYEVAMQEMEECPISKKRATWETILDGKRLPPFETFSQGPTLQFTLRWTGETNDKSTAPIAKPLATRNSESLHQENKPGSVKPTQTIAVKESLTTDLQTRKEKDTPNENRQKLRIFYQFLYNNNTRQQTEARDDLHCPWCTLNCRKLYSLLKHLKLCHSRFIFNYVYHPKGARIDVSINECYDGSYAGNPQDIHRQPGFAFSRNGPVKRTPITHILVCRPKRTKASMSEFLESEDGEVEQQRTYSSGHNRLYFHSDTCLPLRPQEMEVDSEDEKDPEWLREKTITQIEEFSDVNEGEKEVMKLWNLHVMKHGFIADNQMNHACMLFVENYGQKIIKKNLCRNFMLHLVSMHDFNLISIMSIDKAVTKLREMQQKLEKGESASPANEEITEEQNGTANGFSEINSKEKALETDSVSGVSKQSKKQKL
Procedure: A 6 μL solution of 3 μM of the peptide substrate H3K27Me0 (histone H3[21-44]-biotin) in reaction buffer was added to initiate each reaction. […] ELISA (H3K27 Methylation) Assay

Chain of EED (1-441)-His protein (O75530 whole entry): as the sequence (O75530 whole entry) above

SMILES: Fc1ccc2c(c1CNc1ncc(-c3cccnc3)c3nncn13)CCO2 [Example 44, N-((5-fluoro-2,3-dihydrobenzofuran-4-yl)methyl)-8-(pyridin-3-yl)-[1,2,4]triazolo[4,3-c]pyrimidin-5-amine]
- pIC50 (EED (1-441)-His protein): 7.89
- pIC50 [1]: 7.72

SMILES: O=C(c1ccc(-c2cnc(NCc3cccc4c3CCO4)n3cnnc23)cn1)N1CCCC1 [Example 80, (5-(5-(((2,3-dihydrobenzofuran-4-yl)methyl)amino)-[1,2,4]triazolo[4,3-c]pyrimidin-8-yl)pyridin-2-yl)(pyrrolidin-1-yl)methanone]
- pIC50 (EED (1-441)-His protein): 8.43
- pIC50 [1]: 8.06

SMILES: Cc1ncn(-c2cnc(NCc3c(F)ccc4c3CCO4)n3cnnc23)n1 [Example 238, N-((5-fluoro-2,3-dihydrobenzofuran-4-yl)methyl)-8-(3-methyl-1H-1,2,4-triazol-1-yl)-[1,2,4]triazolo[4,3-c]pyrimidin-5-amine]
- pIC50 (EED (1-441)-His protein): 8.33
- pIC50 [1]: 7.84

SMILES: CC1Cc2c(CNc3ncc(-c4ccc(CN(C)C)cc4)c4nncn34)cccc2O1 (stereo not shown) [Example 22, 8-(4-((dimethylamino)methyl)phenyl)-N-((2-methyl-2,3-dihydrobenzofuran-4-yl)methyl)-[1,2,4]triazolo[4,3-c]pyrimidin-5-amine]
- pIC50 (EED (1-441)-His protein): 5.70
- pIC50 [1]: 5.74

SMILES: CN(C)C(=O)c1ccc(-c2cnc(NCc3cccc4c3CCO4)n3cnnc23)cn1 [Example 95, 5-(5-(((2,3-dihydrobenzofuran-4-yl)methyl)amino)-[1,2,4]triazolo[4,3-c]pyrimidin-8-yl)-N,N-dimethylpicolinamide]
- pIC50 (EED (1-441)-His protein): 8.28
- pIC50 [1]: 7.89

SMILES: Cc1ncc(-c2cnc(NCc3cccc4c3CCO4)n3cnnc23)cn1 [Example 60, N-((2,3-dihydrobenzofuran-4-yl)methyl)-8-(2-methylpyrimidin-5-yl)-[1,2,4]triazolo[4,3-c]pyrimidin-5-amine]
- pIC50 (EED (1-441)-His protein): 7.71
- pIC50 [1]: 7.33

SMILES: Fc1ccccc1-c1cnc(NCc2c(F)ccc3c2CCO3)n2cnnc12 [Example 94, N-((5-fluoro-2,3-dihydrobenzofuran-4-yl)methyl)-8-(2-fluorophenyl)-[1,2,4]triazolo[4,3-c]pyrimidin-5-amine]
- pIC50 (EED (1-441)-His protein): 7.95
- pIC50 [1]: 7.73

SMILES: Cc1nc(OC2CC2)ncc1-c1cnc(NCc2c(F)ccc3c2CCO3)n2cnnc12 [Example 225, 8-(2-cyclopropoxy-4-methylpyrimidin-5-yl)-N-((5-fluoro-2,3-dihydrobenzofuran-4-yl)methyl)-[1,2,4]triazolo[4,3-c]pyrimidin-5-amine]
- pIC50 (EED (1-441)-His protein): 8.12
- pIC50 [1]: 7.97

SMILES: O=CN1CCCN(c2ccc(-c3cnc(NCc4cccc5c4CCO5)n4cnnc34)cn2)CC1 [Example 113, 4-(5-(5-(((2,3-dihydrobenzofuran-4-yl)methyl)amino)-[1,2,4]triazolo[4,3-c]pyrimidin-8-yl)pyridin-2-yl)-1,4-diazepane-1-carbaldehyde]
- pIC50 (EED (1-441)-His protein): 7.90
- pIC50 [1]: 7.80

SMILES: CC(=O)N1CCN(CCc2ccc(-c3cnc(NCc4cccc5c4CCO5)n4cnnc34)cn2)CC1 [Example 108, 1-(4-(2-(5-(5-(((2,3-dihydrobenzofuran-4-yl)methyl)amino)-[1,2,4]triazolo[4,3-c]pyrimidin-8-yl)pyridin-2-yl)ethyl)piperazin-1-yl)ethanone]
- pIC50 (EED (1-441)-His protein): 8.17
- pIC50 [1]: 7.96

SMILES: CN(C)CCc1ccc(-c2cnc(NCc3cccc4c3CCO4)n3cnnc23)cn1 [Example 53, N-((2,3-dihydrobenzofuran-4-yl)methyl)-8-(6-(2-(dimethylamino)ethyl)pyridin-3-yl)-[1,2,4]triazolo[4,3-c]pyrimidin-5-amine]
- pIC50 (EED (1-441)-His protein): 7.91
- pIC50 [1]: 7.54

SMILES: COc1cc(C)c(-c2cnc(NCc3c(F)ccc4c3CCO4)n3cnnc23)cn1 [Example 5, N-((5-fluoro-2,3-dihydrobenzofuran-4-yl)methyl)-8-(6-methoxy-4-methylpyridin-3-yl)-[1,2,4]triazolo[4,3-c]pyrimidin-5-amine]
- pIC50 (EED (1-441)-His protein): 8.32
- pIC50 [1]: 8.01

SMILES: Cc1cc(C(=O)N(C)C)ncc1-c1cnc(NCc2c(F)ccc3c2CCO3)n2cnnc12 [Example 131, 5-(5-(((5-fluoro-2,3-dihydrobenzofuran-4-yl)methyl)amino)-[1,2,4]triazolo[4,3-c]pyrimidin-8-yl)-N,N,4-trimethylpicolinamide]
- pIC50 (EED (1-441)-His protein): 8.40
- pIC50 [1]: 7.97

SMILES: CN1CCN(c2cc(-c3cnc(NCc4cccc5c4CCO5)n4cnnc34)ccn2)CC1 [Example 18, N-((2,3-dihydrobenzofuran-4-yl)methyl)-8-(2-(4-methylpiperazin-1-yl)pyridin-4-yl)-[1,2,4]triazolo[4,3-c]pyrimidin-5-amine]
- pIC50 (EED (1-441)-His protein): 7.73
- pIC50 [1]: 7.55

SMILES: Cc1ccc(-c2cnc(NCc3c(F)ccc4c3CCO4)n3cnnc23)cn1 [Example 57, N-((5-fluoro-2,3-dihydrobenzofuran-4-yl)methyl)-8-(6-methylpyridin-3-yl)-[1,2,4]triazolo[4,3-c]pyrimidin-5-amine]
- pIC50 (EED (1-441)-His protein): 8.08
- pIC50 [1]: 7.73

SMILES: c1cncc(-c2cnc(NCc3cccc4c3CCO4)n3cnnc23)c1 [Example 16, N-((2,3-dihydrobenzofuran-4-yl)methyl)-8-(pyridin-3-yl)-[1,2,4]triazolo[4,3-c]pyrimidin-5-amine]
- pIC50 (EED (1-441)-His protein): 7.97
- pIC50 [1]: 7.62

SMILES: FC(F)Oc1ccc(-c2cnc(NCc3cccc4c3CCO4)n3cnnc23)cn1 [Example 78, 8-(6-(difluoromethoxy)pyridin-3-yl)-N-((2,3-dihydrobenzofuran-4-yl)methyl)-[1,2,4]triazolo[4,3-c]pyrimidin-5-amine]
- pIC50 (EED (1-441)-His protein): 6.99
- pIC50 [1]: 6.80

SMILES: Cc1noc(C)c1-c1cnc(NCc2cccc3c2CCO3)n2cnnc12 [Example 59, N-((2,3-dihydrobenzofuran-4-yl)methyl)-8-(3,5-dimethylisoxazol-4-yl)-[1,2,4]triazolo[4,3-c]pyrimidin-5-amine]
- pIC50 (EED (1-441)-His protein): 7.50
- pIC50 [1]: 7.41

SMILES: CNc1cc(F)c(-c2cnc(NCc3cccc4c3CCO4)n3cnnc23)cn1 [Example 111, N-((2,3-dihydrobenzofuran-4-yl)methyl)-8-(4-fluoro-6-(methylamino)pyridin-3-yl)-[1,2,4]triazolo[4,3-c]pyrimidin-5-amine]
- pIC50 (EED (1-441)-His protein): 7.72
- pIC50 [1]: 7.76

SMILES: CS(=O)(=O)CCOc1cncc(-c2cnc(NCc3cccc4c3CCO4)n3cnnc23)c1 [Example 106, N-((2,3-dihydrobenzofuran-4-yl)methyl)-8-(5-(2-(methylsulfonyl)ethoxy)pyridin-3-yl)-[1,2,4]triazolo[4,3-c]pyrimidin-5-amine]
- pIC50 (EED (1-441)-His protein): 7.60
- pIC50 [1]: 7.47

SMILES: CN(C)c1ccc(-c2cnc(NCc3cccc4c3CCO4)n3cnnc23)cn1 [Example 61, N-((2,3-dihydrobenzofuran-4-yl)methyl)-8-(6-(dimethylamino)pyridin-3-yl)-[1,2,4]triazolo[4,3-c]pyrimidin-5-amine]
- pIC50 (EED (1-441)-His protein): 7.89
- pIC50 [1]: 7.71

SMILES: CCOc1ccc(-c2cnc(NCc3cccc4c3CCO4)n3cnnc23)cn1 [Example 63, N-((2,3-dihydrobenzofuran-4-yl)methyl)-8-(6-ethoxypyridin-3-yl)-[1,2,4]triazolo[4,3-c]pyrimidin-5-amine]
- pIC50 (EED (1-441)-His protein): 7.12
- pIC50 [1]: 7.16

SMILES: Cn1nccc1-c1cnc(NCc2cccc3c2CCO3)n2cnnc12 [Example 152, N-((2,3-dihydrobenzofuran-4-yl)methyl)-8-(1-methyl-1H-pyrazol-5-yl)-[1,2,4]triazolo[4,3-c]pyrimidin-5-amine]
- pIC50 (EED (1-441)-His protein): 8.26
- pIC50 [1]: 8.16

SMILES: O=C(c1ccc(-c2cnc(NCc3cccc4c3CCO4)n3cnnc23)cn1)N1CCOCC1 [Example 68, (5-(5-(((2,3-dihydrobenzofuran-4-yl)methyl)amino)-[1,2,4]triazolo[4,3-c]pyrimidin-8-yl)pyridin-2-yl)(morpholino)methanone]
- pIC50 (EED (1-441)-His protein): 7.71
- pIC50 [1]: 7.44

SMILES: Fc1ccc2c(c1CNc1ncc(-c3cnccc3C(F)(F)F)c3nncn13)CCO2 [Example 136, N-((5-fluoro-2,3-dihydrobenzofuran-4-yl)methyl)-8-(4-(trifluoromethyl)pyridin-3-yl)-[1,2,4]triazolo[4,3-c]pyrimidin-5-amine]
- pIC50 (EED (1-441)-His protein): 7.80
- pIC50 [1]: 7.38

SMILES: Cc1cc(C2CC2)ncc1-c1cnc(NCc2c(F)ccc3c2CCO3)n2cnnc12 [Example 173, 8-(6-cyclopropyl-4-methylpyridin-3-yl)-N-((5-fluoro-2,3-dihydrobenzofuran-4-yl)methyl)-[1,2,4]triazolo[4,3-c]pyrimidin-5-amine]
- pIC50 (EED (1-441)-His protein): 8.12
- pIC50 [1]: 8.11

SMILES: CN1CCN(c2ccc(-c3cnc(NCc4cccc5occc45)n4cnnc34)cn2)CC1 [Example 211, N-(benzofuran-4-ylmethyl)-8-(6-(4-methylpiperazin-1-yl)pyridin-3-yl)-[1,2,4]triazolo[4,3-c]pyrimidin-5-amine]
- pIC50 (EED (1-441)-His protein): 7.49
- pIC50 [1]: 7.54

SMILES: FCc1ncccc1-c1cnc(NCc2c(F)ccc3c2CCO3)n2cnnc12 [Example 193, N-((5-fluoro-2,3-dihydrobenzofuran-4-yl)methyl)-8-(2-(fluoromethyl)pyridin-3-yl)-[1,2,4]triazolo[4,3-c]pyrimidin-5-amine]
- pIC50 (EED (1-441)-His protein): 8.40
- pIC50 [1]: 7.89

SMILES: Fc1ccc(-c2cnc(NCc3c(F)ccc4c3CCO4)n3cnnc23)c(Cl)c1 [Example 157, 8-(2-chloro-4-fluorophenyl)-N-((5-fluoro-2,3-dihydrobenzofuran-4-yl)methyl)-[1,2,4]triazolo[4,3-c]pyrimidin-5-amine]
- pIC50 (EED (1-441)-His protein): 7.65
- pIC50 [1]: 7.33

SMILES: Cc1cnc(C(F)F)cc1-c1cnc(NCc2c(F)ccc3c2CCO3)n2cnnc12 [Example 198, 8-(2-(difluoromethyl)-5-methylpyridin-4-yl)-N-((5-fluoro-2,3-dihydrobenzofuran-4-yl)methyl)-[1,2,4]triazolo[4,3-c]pyrimidin-5-amine]
- pIC50 (EED (1-441)-His protein): 8.36
- pIC50 [1]: 7.76

SMILES: Cc1ncccc1-c1cnc(NCc2c(F)ccc3occc23)n2cnnc12 [Example 207, N-((5-fluorobenzofuran-4-yl)methyl)-8-(2-methylpyridin-3-yl)-[1,2,4]triazolo[4,3-c]pyrimidin-5-amine]
- pIC50 [1]: 6.74
